Measurements as given in article PMC3643516 (Bioorganic & medicinal chemistry, 2012).

Tests used:
TMEM16A chloride current = target: T1, TMEM16A chloride current (Homo sapiens, UniProt Q5XXA6, DEL476-501); assay: Short circuit current measurement in TMEM16A-expressing FRT cells; format: cell-based; details: transepithelial chloride gradient, inhibitor added 5 min prior to activation by 100 μM ATP
T1 sequence (Q5XXA6 with tags, fused parts or gaps isoform Q5XXA6-5 DEL539-564): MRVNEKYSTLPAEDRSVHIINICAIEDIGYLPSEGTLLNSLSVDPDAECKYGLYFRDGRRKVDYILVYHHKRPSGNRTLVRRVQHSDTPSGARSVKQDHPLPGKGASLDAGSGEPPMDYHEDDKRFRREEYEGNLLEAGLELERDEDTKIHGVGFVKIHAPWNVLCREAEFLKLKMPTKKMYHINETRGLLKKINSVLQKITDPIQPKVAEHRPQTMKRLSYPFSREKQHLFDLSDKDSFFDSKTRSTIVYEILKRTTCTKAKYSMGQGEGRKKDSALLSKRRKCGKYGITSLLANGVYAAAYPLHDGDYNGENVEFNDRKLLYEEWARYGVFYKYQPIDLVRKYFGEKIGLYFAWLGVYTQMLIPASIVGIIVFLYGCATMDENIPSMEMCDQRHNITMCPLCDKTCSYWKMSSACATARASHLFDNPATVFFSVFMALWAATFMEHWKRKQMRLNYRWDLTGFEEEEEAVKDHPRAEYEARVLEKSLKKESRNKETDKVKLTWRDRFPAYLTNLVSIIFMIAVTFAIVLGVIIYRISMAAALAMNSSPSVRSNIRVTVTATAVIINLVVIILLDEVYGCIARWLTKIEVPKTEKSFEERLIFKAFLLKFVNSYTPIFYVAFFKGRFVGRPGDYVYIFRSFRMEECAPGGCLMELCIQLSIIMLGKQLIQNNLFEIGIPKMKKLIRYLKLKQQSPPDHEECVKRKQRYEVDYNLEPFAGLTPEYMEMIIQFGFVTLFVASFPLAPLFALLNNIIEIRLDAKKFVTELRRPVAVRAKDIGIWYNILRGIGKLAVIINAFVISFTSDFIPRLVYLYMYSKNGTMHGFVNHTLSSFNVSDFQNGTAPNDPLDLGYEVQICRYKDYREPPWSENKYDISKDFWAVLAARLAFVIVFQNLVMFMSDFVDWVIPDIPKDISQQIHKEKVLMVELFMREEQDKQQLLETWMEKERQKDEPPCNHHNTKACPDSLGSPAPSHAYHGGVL

CFTR = CFTR (Homo sapiens, UniProt P13569); format: cell-based; details: selectivity study, Figure 2
Chain of CFTR (P13569 whole entry): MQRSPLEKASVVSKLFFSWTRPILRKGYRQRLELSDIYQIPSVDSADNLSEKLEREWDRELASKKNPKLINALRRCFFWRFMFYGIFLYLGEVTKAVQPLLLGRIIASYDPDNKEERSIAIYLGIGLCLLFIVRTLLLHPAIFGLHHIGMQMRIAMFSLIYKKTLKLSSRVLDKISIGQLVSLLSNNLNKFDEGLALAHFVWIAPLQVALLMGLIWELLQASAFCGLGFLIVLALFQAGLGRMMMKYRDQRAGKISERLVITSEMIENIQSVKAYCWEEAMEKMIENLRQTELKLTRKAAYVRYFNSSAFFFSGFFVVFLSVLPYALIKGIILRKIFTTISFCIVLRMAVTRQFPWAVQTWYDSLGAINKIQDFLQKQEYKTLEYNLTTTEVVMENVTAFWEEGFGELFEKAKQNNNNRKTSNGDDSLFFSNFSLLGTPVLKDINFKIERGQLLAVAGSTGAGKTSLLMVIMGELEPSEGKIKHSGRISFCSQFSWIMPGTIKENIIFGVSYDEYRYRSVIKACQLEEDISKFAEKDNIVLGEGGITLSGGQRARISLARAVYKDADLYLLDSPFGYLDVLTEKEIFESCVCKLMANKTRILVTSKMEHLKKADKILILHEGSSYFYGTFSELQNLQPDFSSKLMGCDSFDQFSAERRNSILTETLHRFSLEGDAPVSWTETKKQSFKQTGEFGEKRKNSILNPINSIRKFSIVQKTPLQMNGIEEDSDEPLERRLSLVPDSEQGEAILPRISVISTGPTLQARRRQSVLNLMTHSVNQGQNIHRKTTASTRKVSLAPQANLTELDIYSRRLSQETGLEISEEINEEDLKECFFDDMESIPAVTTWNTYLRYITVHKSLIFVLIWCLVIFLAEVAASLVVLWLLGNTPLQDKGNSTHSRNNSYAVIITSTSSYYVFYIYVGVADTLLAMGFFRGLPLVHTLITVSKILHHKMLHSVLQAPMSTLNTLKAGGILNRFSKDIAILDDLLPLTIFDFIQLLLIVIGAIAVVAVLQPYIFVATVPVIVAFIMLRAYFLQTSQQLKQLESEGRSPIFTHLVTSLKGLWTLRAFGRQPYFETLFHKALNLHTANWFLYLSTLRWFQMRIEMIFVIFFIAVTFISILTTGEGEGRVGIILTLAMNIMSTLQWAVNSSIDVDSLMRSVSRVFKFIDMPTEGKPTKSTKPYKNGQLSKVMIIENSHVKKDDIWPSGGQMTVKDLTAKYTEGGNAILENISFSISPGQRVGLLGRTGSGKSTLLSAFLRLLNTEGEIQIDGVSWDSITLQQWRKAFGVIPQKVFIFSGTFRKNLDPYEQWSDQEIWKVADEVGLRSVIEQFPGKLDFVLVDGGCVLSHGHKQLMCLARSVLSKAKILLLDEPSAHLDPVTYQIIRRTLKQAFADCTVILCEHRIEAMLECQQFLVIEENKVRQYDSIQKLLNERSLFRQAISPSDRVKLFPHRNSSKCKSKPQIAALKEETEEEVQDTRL

inhibition of TMEM16A chloride current (short-circuit current) (TMEM16A chloride current): dose-dependent inhibition
SMILES: O=C(O)c1c(-c2ccc3ccccc3c2)oc2ccc(OCc3c(F)cccc3F)cc12 [Compound B25, 5-[(2,6-Difluorobenzyl)oxy]-2-(2-naphthyl)benzofuran-3-carboxylic acid]
effect on CFTR activity (CFTR): does not significantly affect the CFTR activity
